The values that follow come from patent US8450313B2, “2,3-diaryl- or heteroaryl-substituted 1,1,1-trifluoro-2-hydroxypropyl compounds” (Hoffmann-La Roche Inc., priority 2009, dated 2013).

Each structure is given as a SMILES string.

For this assay, the target named is T1, full length human recombinant glucocorticoid receptor (Homo sapiens, UniProt P04150).
T1 construct: It contains some partially purified full length human recombinant glucocorticoid receptor; purchased Panvera/Invitrogen PV4302
T1 sequence (P04150 1-777): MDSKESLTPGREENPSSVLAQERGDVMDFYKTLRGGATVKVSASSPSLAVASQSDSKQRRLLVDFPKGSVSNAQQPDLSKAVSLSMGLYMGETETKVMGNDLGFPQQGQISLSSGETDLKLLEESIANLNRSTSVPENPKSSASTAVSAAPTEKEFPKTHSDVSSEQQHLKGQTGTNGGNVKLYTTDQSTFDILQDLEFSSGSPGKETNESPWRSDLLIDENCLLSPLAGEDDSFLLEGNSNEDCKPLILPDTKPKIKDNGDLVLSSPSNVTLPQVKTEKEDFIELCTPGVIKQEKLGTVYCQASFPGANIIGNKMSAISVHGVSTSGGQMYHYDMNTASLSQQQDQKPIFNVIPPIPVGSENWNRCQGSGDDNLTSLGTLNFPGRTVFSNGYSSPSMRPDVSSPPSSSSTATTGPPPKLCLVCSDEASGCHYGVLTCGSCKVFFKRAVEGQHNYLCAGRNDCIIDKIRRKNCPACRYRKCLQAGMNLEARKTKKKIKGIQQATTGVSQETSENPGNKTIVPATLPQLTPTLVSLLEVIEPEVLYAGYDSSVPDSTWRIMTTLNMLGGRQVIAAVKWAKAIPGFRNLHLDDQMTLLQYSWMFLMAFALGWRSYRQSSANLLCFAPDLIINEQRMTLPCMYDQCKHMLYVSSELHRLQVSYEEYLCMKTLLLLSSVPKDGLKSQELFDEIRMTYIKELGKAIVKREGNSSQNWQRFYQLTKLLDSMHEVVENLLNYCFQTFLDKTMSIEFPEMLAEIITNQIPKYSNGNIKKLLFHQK
The assay is described as follows: Glucocorticoid Receptor Binding Assay (Glucocorticoid Receptor Competitor Assay far red kit, fluorescence polarization). Particulars: competition with fluorescent GR ligand Fluormone GS Far Red, 3 hours at 22° C., pH 7.4; Ki calculated from IC50 by Cheng-Prusoff. How it is done:
Glucocorticoid Receptor Binding Assay
The ability of the substances to bind to the glucocorticoid receptor was determined with the help of a commercial Glucocorticoid Receptor Competitor Assay far red kit provided by Panvera/Invitrogen (PV4302). This kit is used as provided by the supplier. It contains some partially purified full length human recombinant glucocorticoid receptor, a coactivator related GR stabilizing peptide, a tight-binding fluorescent GR ligand Fluormone™ GS Far Red as labeled tracer and a screening buffer. All reagents are prepared and the assay is run according to the recommendations of the kit manufacturer.
Briefly, the GR stabilizing peptide and the human recombinant glucocorticoid receptor are both diluted with the screening buffer (pH 7.4) and are gently mixed (no vortexing) just before the assay and kept on ice until use. The fluorescent-labeled ligand is also diluted with the screening buffer just before the assay and kept on ice until use. The substances to test are pre-diluted in pure DMSO then some water is added to get an intermediate 4.2% DMSO stock solution. Ten microliter of the intermediate stock solution is gently mixed with 5 μA of diluted fluorescent-labeled ligand and 5 μl of diluted human recombinant glucocorticoid receptor in a 384-well plate (low volume, ultraclear, glass plate from Greiner ref 788896). The plate is centrifuged, sealed and incubated for 3 hours at 22° C. in the dark. The polarized fluorescence is measured with a Zeiss-HTS reader or any equivalent equipment (610-660 nm).
All compounds were tested to determine IC50 in a serial dilution experiment. The concentration at which 50% inhibition of the fluorescent GR ligand Fluormone™ GS Far Red is obtained (the IC50) is determined after fitting with a sigmoidal dose-response model of a plot of the logarithm of the concentration versus percent inhibition measured for the different concentrations. Ki's were calculated from IC50 based on Cheng-Prusoff equation (Cheng, Y, Prusoff, W H (1973) Biochem Pharmacol 22, 3099-3108): Ki=IC50/[1+D/Kd] wherein D is the concentration of the fluorescent ligand and Kd is the binding constant for the fluorescent ligand binding to the receptor under the conditions used in the competition experiment.
`C[C@H](c1ccc(-c2ccc(Cl)c(C(=O)O)c2)cc1Cl)[C@@](O)(c1ccc2c(c1)n(C)c(=O)n2C)C(F)(F)F` (stereo in doubt) [Example 79, 4,3′-Dichloro-4′-[2-(1,3-dimethyl-2-oxo-2,3-dihydro-1H-benzoimidazol-5-yl)-3,3,3-trifluoro-2-hydroxy-1-methyl-propyl]-biphenyl-3-carboxylic acid]: the Ki was 1 nM.
As for `C[C@H](c1ccc(Oc2ncc(C(=O)O)cc2Cl)cc1Cl)[C@@](O)(c1ccc2c(c1)N(C)C(=O)CO2)C(F)(F)F` [Example 223, 5-Chloro-6-{3-chloro-4-[(1R,2R)-3,3,3-trifluoro-2-hydroxy-1-methyl-2-(4-methyl-3-oxo-3,4-dihydro-2H-benzo[1,4]oxazin-6-yl)-propyl]-phenoxy}-nicotinic acid], the Ki is 552 nM.
In the case of `C[C@H](c1ccc(Oc2ccc(C(=O)O)nc2)cc1Cl)[C@@](O)(c1ccc2c(c1)n(C)c(=O)n2C)C(F)(F)F` (stereo in doubt) [Example 95, 5-{3-Chloro-4-[2-(1,3-dimethyl-2-oxo-2,3-dihydro-1H-benzoimidazol-5-yl)-3,3,3-trifluoro-2-hydroxy-1-methyl-propyl]-phenoxy}-pyridine-2-carboxylic acid], the Ki was 5.3 nM.
As to `C[C@H](c1ccc(Oc2ccc(F)c(C(=O)O)c2)cc1Cl)[C@@](O)(c1ccc2c(c1)N(C)C(=O)CO2)C(F)(F)F` (racemic) [Example 56, 5-{3-Chloro-4-[3,3,3-trifluoro-2-hydroxy-1-methyl-2-(4-methyl-3-oxo-3,4-dihydro-2H-benzo[1,4]oxazin-6-yl)-propyl]-phenoxy}-2-fluoro-benzoic acid], the Ki is 0.3 nM.
As for `C[C@H](c1ccc(-c2ccc(C(=O)O)c(F)c2)cc1Cl)[C@@](O)(c1ccc2c(c1)N(C)CCO2)C(F)(F)F` (stereo in doubt) [Example 170, 3′-Chloro-3-fluoro-4′-[3,3,3-trifluoro-2-hydroxy-1-methyl-2-(4-methyl-3,4-dihydro-2H-benzo[1,4]oxazin-6-yl)-propyl]-biphenyl-4-carboxylic acid], the figure is 210 nM; as for `C[C@H](c1ccc(Oc2ccc(Cl)c(C(=O)O)c2)cc1Cl)[C@@](O)(c1ccc2c(c1)N(C)C(=O)CO2)C(F)(F)F` (racemic) [Example 58, 2-Chloro-5-{3-chloro-4-[3,3,3-trifluoro-2-hydroxy-1-methyl-2-(4-methyl-3-oxo-3,4-dihydro-2H-benzo[1,4]oxazin-6-yl)-propyl]-phenoxy}-benzoic acid], 0.3 nM; as for `COC(=O)c1cnc(Oc2ccc([C@@H](C)[C@@](O)(c3ccc4c(c3)N(C)C(=O)CO4)C(F)(F)F)c(Cl)c2)cc1Cl` (racemic) [Example 210, 4-Chloro-6-{3-chloro-4-[3,3,3-trifluoro-2-hydroxy-1-methyl-2-(4-methyl-3-oxo-3,4-dihydro-2H-benzo[1,4]oxazin-6-yl)-propyl]-phenoxy}-nicotinic acid methyl ester], 1.5 nM.
On to `C[C@@H](c1ccc(-c2cc(C(=O)O)ccc2F)cc1Cl)[C@](O)(c1ccc2c(c1)N(C)C(=O)CO2)C(F)(F)F` (relative stereo) [Example 38, 3′-Chloro-6-fluoro-4′-[3,3,3-trifluoro-2-hydroxy-1-methyl-2-(4-methyl-3-oxo-3,4-dihydro-2H-benzo[1,4]oxazin-6-yl)-propyl]-biphenyl-3-carboxylic acid], for which the Ki was 1.8 nM.
For the compound `C[C@@H](c1ccc(-c2ccc(C(=O)O)c(F)c2)cc1Cl)[C@](O)(c1ccc(=O)n2ccccc12)C(F)(F)F` (stereo in doubt) [Example 50, 3′-Chloro-3-fluoro-4′-[3,3,3-trifluoro-2-hydroxy-1-methyl-2-(4-oxo-4H-quinolizin-1-yl)-propyl]-biphenyl-4-carboxylic acid], the Ki was 48.7 nM.
As for `C[C@H](c1ccc(Br)cc1Cl)[C@@](O)(c1ccc2oc(=O)n(C)c2c1)C(F)(F)F` (relative stereo) [Example 116, 5-[2-(4-Bromo-2-chloro-phenyl)-1-hydroxy-1-trifluoromethyl-propyl]-3-methyl-3H-benzooxazol-2-one], the figure is 1 nM; as for `C[C@H](c1ccc(Oc2ncc(C(=O)O)cc2Cl)cc1Cl)[C@@](O)(c1ccc2c(c1)N(C)C(=O)CO2)C(F)(F)F` (racemic) [Example 213, 5-Chloro-6-{3-chloro-4-[3,3,3-trifluoro-2-hydroxy-1-methyl-2-(4-methyl-3-oxo-3,4-dihydro-2H-benzo[1,4]oxazin-6-yl)-propyl]-phenoxy}-nicotinic acid], 1.7 nM; as for `C[C@H](c1ccc(-c2ccc(C(=O)O)cc2Cl)cc1Cl)[C@@](O)(c1ccc2c(c1)n(C)c(=O)n2C)C(F)(F)F` (stereo in doubt) [Example 81, 2,3′-Dichloro-4′-[2-(1,3-dimethyl-2-oxo-2,3-dihydro-1H-benzoimidazol-5-yl)-3,3,3-trifluoro-2-hydroxy-1-methyl-propyl]-biphenyl-4-carboxylic acid], 1.4 nM.
As for `CCOC(=O)COc1ccc(Cl)c([C@H](C)[C@](O)(c2ccc3c(c2)N(C)C(=O)CO3)C(F)(F)F)c1` (stereo in doubt) [Example 3, {4-Chloro-3-[3,3,3-trifluoro-2-hydroxy-1-methyl-2-(4-methyl-3-oxo-3,4-dihydro-2H-benzo[1,4]oxazin-6-yl)-propyl]-phenoxy}-acetic acid ethyl ester], the figure is 9.2 nM.
As for `C[C@H](c1ccc(Oc2ccc(C(=O)O)c(C(F)(F)F)n2)cc1Cl)[C@@](O)(c1ccc2c(c1)N(C)C(=O)CO2)C(F)(F)F` (stereo in doubt) [Example 215, 6-{3-Chloro-4-[3,3,3-trifluoro-2-hydroxy-1-methyl-2-(4-methyl-3-oxo-3,4-dihydro-2H-benzo[1,4]oxazin-6-yl)-propyl]-phenoxy}-2-trifluoromethyl-nicotinic acid], the figure is 1.4 nM; as for `C[C@H](c1ccc(Oc2ncc(C(=O)O)cn2)cc1Cl)[C@@](O)(c1ccc2oc(=O)n(C)c2c1)C(F)(F)F` (relative stereo) [Example 203, 2-{3-Chloro-4-[3,3,3-trifluoro-2-hydroxy-1-methyl-2-(3-methyl-2-oxo-2,3-dihydro-benzooxazol-5-yl)-propyl]-phenoxy}-pyrimidine-5-carboxylic acid], 1.8 nM; as for `C[C@H](c1ccc(-c2ccc(CC(=O)O)cc2)cc1Cl)[C@@](O)(c1ccc2c(c1)n(C)c(=O)n2C)C(F)(F)F` (stereo in doubt) [Example 82, {3′-Chloro-4′-[2-(1,3-dimethyl-2-oxo-2,3-dihydro-1H-benzoimidazol-5-yl)-3,3,3-trifluoro-2-hydroxy-1-methyl-propyl]-biphenyl-4-yl}-acetic acid], 7 nM.
Consider `C[C@@H](c1cc(Oc2ccc(C(=O)O)c(Cl)c2)ccc1Cl)[C@](O)(c1ccc2c(c1)N(C)C(=O)CO2)C(F)(F)F` (relative stereo) [Example 10, 2-Chloro-4-{4-chloro-3-[3,3,3-trifluoro-2-hydroxy-1-methyl-2-(4-methyl-3-oxo-3,4-dihydro-2H-benzo[1,4]oxazin-6-yl)-propyl]-phenoxy}-benzoic acid], for which the Ki was 3.7 nM.
As for `C[C@H](c1ccc(-c2cccc(C(=O)O)c2)cc1Cl)[C@@](O)(c1ccc2c(c1)oc(=O)n2C)C(F)(F)F` (stereo in doubt) [Example 179, 3′-Chloro-4′-[3,3,3-trifluoro-2-hydroxy-1-methyl-2-(3-methyl-2-oxo-2,3-dihydro-benzooxazol-6-yl)-propyl]-biphenyl-3-carboxylic acid], the figure is 13.3 nM.

A word on the Ki: it is a dissociation constant, usually derived from enzyme kinetics or from competition with a known ligand.
